PubChem BioAssay AID1963839 (Molecular Pharmacology Branch, DTP, NCI, 2024)

Test system: 817829-284-R-J1-PDC complex spheroid viability
Assay: Anticancer human tumor 817829-284-R-J1-PDC patient-derived colon adenocarcinoma cell line growth inhibition [POLQ]
Details: for IC50: curve of first compound; for viability, T/C: stronger effect = lower value
In short: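 Three-cell-type spheroids modelling solid tumor plus stroma served as the readout system; POL inhibitors were tested individually and in combination, concentration ranges set by clinical Cmax where known.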

[1] = second compound 0.0316 µM, first compound 0.00316 µM
[2] = second compound 0.0316 µM, first compound 0.01 µM
[3] = second compound 0.0316 µM, first compound 0.0316 µM
[4] = second compound 0.0316 µM, first compound 0.1 µM
[5] = second compound 0.0316 µM, first compound 0.316 µM
[6] = second compound 0.0316 µM, first compound 1 µM
[7] = second compound 0.1 µM, first compound 0.00316 µM
[8] = second compound 0.1 µM, first compound 0.01 µM
[9] = second compound 0.1 µM, first compound 0.0316 µM
[10] = second compound 0.1 µM, first compound 0.1 µM
[11] = second compound 0.1 µM, first compound 0.316 µM
[12] = second compound 0.1 µM, first compound 1 µM
[13] = second compound 0.316 µM, first compound 0.00316 µM
[14] = second compound 0.316 µM, first compound 0.01 µM
[15] = second compound 0.316 µM, first compound 0.0316 µM
[16] = second compound 0.316 µM, first compound 0.1 µM
[17] = second compound 0.316 µM, first compound 0.316 µM
[18] = second compound 0.316 µM, first compound 1 µM
[19] = second compound 1 µM, first compound 0.00316 µM
[20] = second compound 1 µM, first compound 0.01 µM
[21] = second compound 1 µM, first compound 0.0316 µM
[22] = second compound 1 µM, first compound 0.1 µM
[23] = second compound 1 µM, first compound 0.316 µM
[24] = second compound 1 µM, first compound 1 µM
[25] = second compound 3.16 µM, first compound 0.00316 µM
[26] = second compound 3.16 µM, first compound 0.01 µM
[27] = second compound 3.16 µM, first compound 0.0316 µM
[28] = second compound 3.16 µM, first compound 0.1 µM
[29] = second compound 3.16 µM, first compound 0.316 µM
[30] = second compound 3.16 µM, first compound 1 µM
[31] = second compound 10 µM, first compound 0.00316 µM
[32] = second compound 10 µM, first compound 0.01 µM
[33] = second compound 10 µM, first compound 0.0316 µM
[34] = second compound 10 µM, first compound 0.1 µM
[35] = second compound 10 µM, first compound 0.316 µM
[36] = second compound 10 µM, first compound 1 µM
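Note: spheroids exposed to compounds for 7 days.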
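Throughout, for viability, T/C: 100% = DMSO vehicle-treated spheroids.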

With `COc1cccc(OCCCN)c1-c1cc(Nc2cnc(C#N)cn2)n[nH]1` + Nc1ccc(C#CCN(C(=O)Cc2ncc(C(F)(F)F)cc2C(F)(F)F)c2ccc(F)cc2)nn1 as the molecule, how does the IC50 (second compound 0.0316 µM) read?
Its IC50 is 5.44 nM.

And the IC50 (second compound 0.1 µM)?
The IC50 was 5.2 nM.

What about the IC50 (second compound 0.316 µM) of the same molecule?
Its IC50 is 5.7 nM.

What about the IC50 (second compound 1 µM) of the same molecule?
Its IC50 is 5.69 nM.

What about the IC50 (second compound 3.16 µM) of the same molecule?
Its IC50 is 5.41 nM.

What about the IC50 (second compound 10 µM) of the same molecule?
The IC50 was 5.7 nM.

What about the viability, T/C [1] of the same molecule?
The viability, T/C was 82.4%.

What about the viability, T/C [2] of the same molecule?
Its viability, T/C is 13.8%.

And the viability, T/C [3]?
The viability, T/C was 5.45%.

What about the viability, T/C [4] of the same molecule?
The viability, T/C was 4.83%.

And the viability, T/C [5]?
Its viability, T/C is 4.44%.

What about the viability, T/C [6] of the same molecule?
The viability, T/C was 3.65%.

What about the viability, T/C [7] of the same molecule?
Its viability, T/C is 77.1%.

And the viability, T/C [8]?
Its viability, T/C is 14.6%.

What about the viability, T/C [9] of the same molecule?
The viability, T/C was 4.6%.

What about the viability, T/C [10] of the same molecule?
Its viability, T/C is 5.23%.

And the viability, T/C [11]?
The viability, T/C was 3.56%.

And the viability, T/C [12]?
Its viability, T/C is 3%.

What about the viability, T/C [13] of the same molecule?
The viability, T/C was 87%.

And the viability, T/C [14]?
The viability, T/C was 14.7%.

What about the viability, T/C [15] of the same molecule?
Its viability, T/C is 4.16%.

And the viability, T/C [16]?
Its viability, T/C is 5.93%.

And the viability, T/C [17]?
The viability, T/C was 4.07%.

What about the viability, T/C [18] of the same molecule?
The viability, T/C was 3.09%.

And the viability, T/C [19]?
Its viability, T/C is 84.7%.

And the viability, T/C [20]?
Its viability, T/C is 16.7%.

What about the viability, T/C [21] of the same molecule?
The viability, T/C was 5.79%.

And the viability, T/C [22]?
The viability, T/C was 4.2%.

What about the viability, T/C [23] of the same molecule?
The viability, T/C was 4.04%.

And the viability, T/C [24]?
Its viability, T/C is 2.8%.

What about the viability, T/C [25] of the same molecule?
Its viability, T/C is 84%.

What about the viability, T/C [26] of the same molecule?
Its viability, T/C is 11.2%.

And the viability, T/C [27]?
The viability, T/C was 5.75%.

And the viability, T/C [28]?
Its viability, T/C is 5.62%.

And the viability, T/C [29]?
The viability, T/C was 3.65%.

And the viability, T/C [30]?
The viability, T/C was 3.11%.

What about the viability, T/C [31] of the same molecule?
Its viability, T/C is 87.2%.

And the viability, T/C [32]?
The viability, T/C was 14.5%.

What about the viability, T/C [33] of the same molecule?
The viability, T/C was 5.81%.

And the viability, T/C [34]?
The viability, T/C was 3.93%.

What about the viability, T/C [35] of the same molecule?
The viability, T/C was 4.01%.

And the viability, T/C [36]?
Its viability, T/C is 3.39%.

How did the IC50 (second compound 0.0316 µM) turn out when `Cn1ncnc1[C@H]1c2n[nH]c(=O)c3cc(F)cc(c23)N[C@@H]1c1ccc(F)cc1` + Nc1ccc(C#CCN(C(=O)Cc2ncc(C(F)(F)F)cc2C(F)(F)F)c2ccc(F)cc2)nn1 was run?
The IC50 was 38.9 nM.

What about the IC50 (second compound 0.1 µM) of the same molecule?
Its IC50 is 43.5 nM.

And the IC50 (second compound 0.316 µM)?
The IC50 was 21.4 nM.

What about the IC50 (second compound 1 µM) of the same molecule?
The IC50 was 37.5 nM.

And the IC50 (second compound 3.16 µM)?
The IC50 was 48.9 nM.

What about the IC50 (second compound 10 µM) of the same molecule?
Its IC50 is 26.5 nM.

And the viability, T/C (second compound 0.0316 µM, first compound 0.000316 µM)?
The viability, T/C was 97.7%.

What about the viability, T/C (second compound 0.0316 µM, first compound 0.001 µM) of the same molecule?
Its viability, T/C is 82.9%.

And the viability, T/C [1]?
Its viability, T/C is 85%.

And the viability, T/C [2]?
The viability, T/C was 63.8%.

And the viability, T/C [3]?
Its viability, T/C is 55.5%.

What about the viability, T/C [4] of the same molecule?
Its viability, T/C is 35%.

And the viability, T/C (second compound 0.1 µM, first compound 0.000316 µM)?
Its viability, T/C is 79.9%.

And the viability, T/C (second compound 0.1 µM, first compound 0.001 µM)?
The viability, T/C was 89.2%.

And the viability, T/C [7]?
Its viability, T/C is 76.1%.

What about the viability, T/C [8] of the same molecule?
The viability, T/C was 69.5%.

What about the viability, T/C [9] of the same molecule?
Its viability, T/C is 58.7%.

And the viability, T/C [10]?
The viability, T/C was 30.9%.

What about the viability, T/C (second compound 0.316 µM, first compound 0.000316 µM) of the same molecule?
The viability, T/C was 107%.

What about the viability, T/C (second compound 0.316 µM, first compound 0.001 µM) of the same molecule?
Its viability, T/C is 92.5%.

And the viability, T/C [13]?
The viability, T/C was 64.8%.

And the viability, T/C [14]?
The viability, T/C was 64.2%.

And the viability, T/C [15]?
The viability, T/C was 47.4%.

And the viability, T/C [16]?
Its viability, T/C is 31.7%.

And the viability, T/C (second compound 1 µM, first compound 0.000316 µM)?
The viability, T/C was 94.8%.

What about the viability, T/C (second compound 1 µM, first compound 0.001 µM) of the same molecule?
Its viability, T/C is 93.2%.

And the viability, T/C [19]?
The viability, T/C was 69.2%.

And the viability, T/C [20]?
Its viability, T/C is 65.6%.

What about the viability, T/C [21] of the same molecule?
The viability, T/C was 55.2%.

And the viability, T/C [22]?
The viability, T/C was 37.1%.

What about the viability, T/C (second compound 3.16 µM, first compound 0.000316 µM) of the same molecule?
The viability, T/C was 87.3%.

What about the viability, T/C (second compound 3.16 µM, first compound 0.001 µM) of the same molecule?
The viability, T/C was 93.8%.

And the viability, T/C [25]?
Its viability, T/C is 63.9%.

What about the viability, T/C [26] of the same molecule?
Its viability, T/C is 67.4%.

What about the viability, T/C [27] of the same molecule?
Its viability, T/C is 58%.

What about the viability, T/C [28] of the same molecule?
Its viability, T/C is 41%.

What about the viability, T/C (second compound 10 µM, first compound 0.000316 µM) of the same molecule?
Its viability, T/C is 107%.

What about the viability, T/C (second compound 10 µM, first compound 0.001 µM) of the same molecule?
The viability, T/C was 80.1%.

And the viability, T/C [31]?
The viability, T/C was 80.5%.

What about the viability, T/C [32] of the same molecule?
The viability, T/C was 61.6%.

What about the viability, T/C [33] of the same molecule?
The viability, T/C was 49.7%.

What about the viability, T/C [34] of the same molecule?
The viability, T/C was 32.4%.

What does the source list for `Nc1ccn(C2OC(CO)C(O)C2(F)F)c(=O)n1` (stereo unspecified) + Nc1ccc(C#CCN(C(=O)Cc2ncc(C(F)(F)F)cc2C(F)(F)F)c2ccc(F)cc2)nn1?
IC50 (second compound 0.0316 µM): < 31.6 nM; IC50 (second compound 0.1 µM): < 31.6 nM; IC50 (second compound 0.316 µM): < 31.6 nM; IC50 (second compound 1 µM): < 31.6 nM; IC50 (second compound 3.16 µM): < 31.6 nM; IC50 (second compound 10 µM): < 31.6 nM; viability, T/C [3]: 3.03%; viability, T/C [4]: 4.05%; viability, T/C [5]: 4.41%; viability, T/C [6]: 4.06%; viability, T/C (second compound 0.0316 µM, first compound 3.16 µM): 2.78%; viability, T/C (second compound 0.0316 µM, first compound 10 µM): 2.3%; viability, T/C [9]: 3.67%; viability, T/C [10]: 4.46%; viability, T/C [11]: 3.95%; viability, T/C [12]: 3.72%; viability, T/C (second compound 0.1 µM, first compound 3.16 µM): 3.07%; viability, T/C (second compound 0.1 µM, first compound 10 µM): 1.99%; viability, T/C [15]: 3.79%; viability, T/C [16]: 3.81%; viability, T/C [17]: 4.1%; viability, T/C [18]: 4.23%; viability, T/C (second compound 0.316 µM, first compound 3.16 µM): 2.51%; viability, T/C (second compound 0.316 µM, first compound 10 µM): 2.13%; viability, T/C [21]: 3.62%; viability, T/C [22]: 4.03%; viability, T/C [23]: 4.21%; viability, T/C [24]: 3.9%; viability, T/C (second compound 1 µM, first compound 3.16 µM): 2.69%; viability, T/C (second compound 1 µM, first compound 10 µM): 1.87%; viability, T/C [27]: 4.08%; viability, T/C [28]: 3.7%; viability, T/C [29]: 3.44%; viability, T/C [30]: 3.79%; viability, T/C (second compound 3.16 µM, first compound 3.16 µM): 2.78%; viability, T/C (second compound 3.16 µM, first compound 10 µM): 1.9%; viability, T/C [33]: 5.53%; viability, T/C [34]: 3.31%; viability, T/C [35]: 3.9%; viability, T/C [36]: 3.4%; viability, T/C (second compound 10 µM, first compound 3.16 µM): 3.17%; viability, T/C (second compound 10 µM, first compound 10 µM): 2.42%
